The source of these data is patent US20230391786A1, “cGAS INHIBITORS” (Eli Lilly and Company, priority 2022, published 2023).

SMILES strings stand for the structures. Counter-ions that a name gives are not always drawn.

Experiment [1] deals with cGAS activity in THP1 cells (IFNb as marker). The experiment is described as follows: Cellular assay to measure cGAS activity (IFNb production in PMA-differentiated THP1 cells stimulated by RDG-Adenovirus-GFP). The format is cell-based, human. As to conditions: Homo sapiens, THP-1, THP1 cells, PMA differentiated, RDG-Adenovirus-GFP 1000 MOI, IFNb AlphaLISA, overnight incubation; read-out: IC50 (μM), Cellular assay for Compounds 95-348. Here is the method: Cellular assay to measure cGAS activity: Use THP1 cell line from ATCC to determine inhibition of cGAS activity by test compounds in human cells. Plate cells on 96-well plates at 0.2×10^6/well and differentiate with phorbol myristate acetate (PMA) at 37° C./5% CO2. After 24 hours, replace PMA containing media with media lacking PMA and further incubate overnight. Stimulate cells were then by RDG-Adenovirus-GFP (Vector Biolabs #1768) at 1000 MOI for 4 hours prior to the addition of test compounds. After overnight incubation, transfer 10 μL of the media from each well to a new plate for IFNb analysis as a marker for cGAS activity. Measure quantification of IFNb with an IFNb AlphaLISA Detection kit (Perkin Elmer AL3133F) by mixing the acceptor beads with the cell supernatant followed by the addition of the biotinylated antibody and donor beads. Measure the relative fluorescence signal produced from the interaction of the donor and acceptor beads by a PHERAStar AlphaLISA protocol and evaluate the inhibitory effect of a compound by plotting specific inhibition of IFNb production against log concentration of the test compound. Calculate IC50 values using a 4-parameter non-linear logistic equation (y=(S0+((SInf−S0)/(1+((qAC50/x)^nHill))))).
(Bead proximity is the source of the signal in Alpha formats.)

The target in a further experiment is recombinant human cGAS (Homo sapiens (Human), UniProt Q8N884). Put plainly: In vitro inhibition assay of cGAS activity (cGAMP production, RapidFire mass spectrometry). Conditions: 10 nM recombinant human cGAS, 60 nM 75-bp dsDNA, ATP, GTP, room temperature 3 hours, read-out: IC50 (μM), In vitro inhibition assay for Compounds 95-348. It is filed as biochemical. In a few lines: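 Full-length His6-tagged human cGAS (10 nM, E. coli-expressed) was incubated 3 h at room temperature with 60 nM 75-bp dsDNA, ATP, 50 μM GTP and compound at pH 7.5 with 5 mM MgCl2. cGAMP formation was measured by RapidFire mass spectrometry, and IC50 was taken from a 4-parameter logistic fit.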
Chain of recombinant human cGAS (Q8N884 whole entry): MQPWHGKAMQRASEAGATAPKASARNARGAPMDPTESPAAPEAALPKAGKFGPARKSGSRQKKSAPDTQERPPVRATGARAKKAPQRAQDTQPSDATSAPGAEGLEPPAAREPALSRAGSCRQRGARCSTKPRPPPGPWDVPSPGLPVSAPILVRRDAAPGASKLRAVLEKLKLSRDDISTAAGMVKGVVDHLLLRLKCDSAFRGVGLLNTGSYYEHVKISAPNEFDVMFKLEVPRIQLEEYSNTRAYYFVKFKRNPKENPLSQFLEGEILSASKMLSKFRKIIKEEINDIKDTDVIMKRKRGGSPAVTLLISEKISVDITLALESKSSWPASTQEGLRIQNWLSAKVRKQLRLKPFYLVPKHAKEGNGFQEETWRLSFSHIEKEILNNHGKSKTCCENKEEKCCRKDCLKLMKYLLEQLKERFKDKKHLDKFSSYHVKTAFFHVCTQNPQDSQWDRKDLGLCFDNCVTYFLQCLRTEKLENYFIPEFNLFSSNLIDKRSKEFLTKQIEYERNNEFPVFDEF

Broadly, the IC50 is the point on the concentration scale where inhibition reaches its midpoint. Take `COCc1[nH]c2c(Cl)c(Cl)cc(NC(=O)C(F)F)c2c1-c1cn[nH]c1` [Example 132, N-(6,7-Dichloro-2-(methoxymethyl)-3-(1H-pyrazol-4-yl)-1H-indol-4-yl)-2,2-difluoroacetamide]: the IC50 in experiment [1] came out at 0.317 µM; on recombinant human cGAS, 0.0202 µM.
Consider `Cn1c(CNC(=O)CO)c(-c2cn[nH]c2)c2ccc(Cl)c(Cl)c21` [Example 133, N-[[6,7-Dichloro-1-methyl-3-(1H-pyrazol-4-yl)indol-2-yl]methyl]-2-hydroxy-acetamide], for which the results for the IC50 (in experiment [1]; on recombinant human cGAS) were 0.498 µM and 0.0112 µM, respectively.
On the same counts, the results for `CC(=O)NCc1c(-c2cn[nH]c2)c2ccc(Cl)c(Cl)c2n1C` [Example 134, N-[[6,7-Dichloro-1-methyl-3-(1H-pyrazol-4-yl)indol-2-yl]methyl]acetamide] are 1.59 µM and 0.0282 µM.
Take `N#CCNc1cc(Cl)c(Cl)c2c1c(-c1cn[nH]c1)c1n2CCNC1=O` [Example 135, 2-[[6,7-Dichloro-1-oxo-10-(1H-pyrazol-4-yl)-3,4-dihydro-2H-pyrazino[1,2-a]indol-9-yl]amino]acetonitrile]: the results for the IC50 (in experiment [1]; on recombinant human cGAS) were above 10 µM and 0.0486 µM, respectively.
On to `CC(=O)NCCn1cc(-c2cn[nH]c2)c2c(OCC#N)cc(Cl)c(Cl)c21` [Example 136, N-[2-[6,7-Dichloro-4-(cyanomethoxy)-3-(1H-pyrazol-4-yl)indol-1-yl]ethyl]acetamide], for which the IC50 in experiment [1] stood at 3.42 µM; on recombinant human cGAS, 0.0764 µM.
For the compound `OCCn1cc(-n2cc(-c3cn[nH]c3)c3ccc(Cl)c(Cl)c32)nn1` [Example 138, 2-[4-[6,7-Dichloro-3-(1H-pyrazol-4-yl)indol-1-yl]triazol-1-yl]ethanol], the IC50 in experiment [1] was found to be 4.99 µM; on recombinant human cGAS, 0.0462 µM.
Take `OCCCn1cc(-n2cc(-c3cn[nH]c3)c3ccc(Cl)c(Cl)c32)nn1` [Example 139, 3-[4-[6,7-Dichloro-3-(1H-pyrazol-4-yl)indol-1-yl]triazol-1-yl]propan-1-ol]: the IC50 in experiment [1] is 5.13 µM; on recombinant human cGAS it was 0.077 µM.
With `OCC(O)Cn1cc(-n2cc(-c3cn[nH]c3)c3ccc(Cl)c(Cl)c32)nn1` (centres unmarked) [Example 140, 3-[4-[6,7-Dichloro-3-(1H-pyrazol-4-yl)indol-1-yl]triazol-1-yl]propane-1,2-diol], the IC50 in experiment [1] stood at 7.11 µM; at recombinant human cGAS, 0.0481 µM.
For `CNC(=O)CC(=O)NC1CCc2c(-c3cn[nH]c3)c3ccc(Cl)c(Cl)c3n2C1` (centres unmarked) [Example 141, N′-[3,4-Dichloro-10-(1H-pyrazol-4-yl)-6,7,8,9-tetrahydropyrido[1,2-a]indol-7-yl]-N-methyl-propanediamide], the IC50 in experiment [1] came out at 3.3 µM; at recombinant human cGAS, 0.0275 µM.
On the same counts, the results for `N#CCOc1cc(Cl)c(Cl)c2c1c(-c1cn[nH]c1)c1n2CCN(CCO)C1=O` [Example 142, 2-[[6,7-Dichloro-2-(2-hydroxyethyl)-1-oxo-10-(1H-pyrazol-4-yl)-3,4-dihydropyrazino[1,2-a]indol-9-yl]oxy]acetonitrile] are 3.14 µM and 0.0127 µM.
For the compound `N#CCNc1cc(Cl)c(Cl)c2c1c(-c1cn[nH]c1)c1n2CCN(CCO)C1=O` [Example 143, 2-[[6,7-Dichloro-2-(2-hydroxyethyl)-1-oxo-10-(1H-pyrazol-4-yl)-3,4-dihydropyrazino[1,2-a]indol-9-yl]amino]acetonitrile], the IC50 in experiment [1] is above 10 µM; on recombinant human cGAS, 0.0419 µM.
On the same counts, the results for `OCCCNc1cc(Cl)c(Cl)c2[nH]cc(-c3cn[nH]c3)c12` [Example 144, 3-[[6,7-Dichloro-3-(1H-pyrazol-4-yl)-1H-indol-4-yl]amino]propan-1-ol] are 1.47 µM and 0.00433 µM.
The corresponding values for `O=C(CO)Nc1cc(Cl)c(Cl)c2c1c(-c1cn[nH]c1)c1n2CCN(C(=O)CO)C1` [Example 145, N-(6,7-Dichloro-2-(2-hydroxyacetyl)-10-(1H-pyrazol-4-yl)-1,2,3,4-tetrahydropyrazino[1,2-a]indol-9-yl)-2-hydroxyacetamide] are above 10 µM and 0.0804 µM.
With `CC(=O)N1CCn2c(c(-c3cn[nH]c3)c3c(NC(=O)CO)cc(Cl)c(Cl)c32)C1` [Example 146, N-(2-Acetyl-6,7-dichloro-10-(1H-pyrazol-4-yl)-1,2,3,4-tetrahydropyrazino[1,2-a]indol-9-yl)-2-hydroxyacetamide], the results for the IC50 (in experiment [1]; on recombinant human cGAS) were above 10 µM and 0.0918 µM, respectively.
The corresponding values for `NC1(C(=O)N2CCn3c(c(-c4cn[nH]c4)c4ccc(Cl)c(Cl)c43)C2)CCOCC1` [Example 147, (4-Aminotetrahydro-2H-pyran-4-yl)(6,7-dichloro-10-(1H-pyrazol-4-yl)-3,4-dihydropyrazino[1,2-a]indol-2(1H)-yl)methanone] are 4.63 µM and 0.0474 µM.
On the same counts, the results for `CCNc1cc(Cl)c(Cl)c2c1c(-c1cn[nH]c1)c1n2CCN(C(=O)CO)C1` [Example 148, 1-(6,7-Dichloro-9-(ethylamino)-10-(1H-pyrazol-4-yl)-3,4-dihydropyrazino[1,2-a]indol-2(1H)-yl)-2-hydroxyethan-1-one] are 1.54 µM and 0.052 µM.
On the same counts, the results for `CCNc1cc(Cl)c(Cl)c2c1c(-c1cn[nH]c1)c1n2CCN(C)C1=O` [Example 149, 6,7-Dichloro-9-(ethylamino)-2-methyl-10-(1H-pyrazol-4-yl)-3,4-dihydropyrazino[1,2-a]indol-1-one hydrochloride] are 6.05 µM and 0.0442 µM.
As to `CCNc1cc(Cl)c(Cl)c2[nH]cc(-c3cn[nH]c3)c12` [Example 150, 6,7-Dichloro-N-ethyl-3-(1H-pyrazol-4-yl)-1H-indol-4-amine], the half-inhibitory concentration (IC50) was found to be 1.92 µM in experiment [1] and 0.0303 µM at recombinant human cGAS.
The corresponding values for `CC(=O)N1CCOC(CCN2CCn3c(c(-c4cn[nH]c4)c4c(OCC#N)cc(Cl)c(Cl)c43)C2=O)C1` (centres unmarked) [Example 151, 2-[[2-[2-(4-Acetylmorpholin-2-yl)ethyl]-6,7-dichloro-1-oxo-10-(1H-pyrazol-4-yl)-3,4-dihydropyrazino[1,2-a]indol-9-yl]oxy]acetonitrile] are above 10 µM and 0.0349 µM.
On the same counts, the results for `COc1cc2c(-c3cn[nH]c3)cn(-c3cn(CCO)nn3)c2cc1Cl` [Example 152, 2-[4-[6-Chloro-5-methoxy-3-(1H-pyrazol-4-yl)indol-1-yl]triazol-1-yl]ethanol] are 1.4 µM and 0.0142 µM.
On the same counts, the results for `CC(=O)NCc1[nH]c2c(Cl)c(Cl)cc(OCC#N)c2c1-c1cn[nH]c1` [Example 153, N-((6,7-Dichloro-4-(cyanomethoxy)-3-(1H-pyrazol-4-yl)-1H-indol-2-yl)methyl)acetamide] are 0.807 µM and 0.00511 µM.
With `O=C(CO)NC1Cc2c(-c3cn[nH]c3)c3ccc(Cl)c(Cl)c3n2C1` (centres unmarked) [Example 154, N-(5,6-Dichloro-9-(1H-pyrazol-4-yl)-2,3-dihydro-1H-pyrrolo[1,2-a]indol-2-yl)-2-hydroxyacetamide], the IC50 in experiment [1] stood at 2.41 µM; at recombinant human cGAS, 0.026 µM.
As for `CC(=O)NC1Cc2c(-c3cn[nH]c3)c3ccc(Cl)c(Cl)c3n2C1` (centres unmarked) [Example 155, N-(5,6-Dichloro-9-(1H-pyrazol-4-yl)-2,3-dihydro-1H-pyrrolo[1,2-a]indol-2-yl)acetamide], the half-maximal inhibitory concentration (IC50) in experiment [1] is 7.68 µM; at recombinant human cGAS, 0.0273 µM.
For `Clc1ccc2c(-c3cn[nH]c3)c(-c3nnco3)[nH]c2c1Cl` [Example 156, 2-[6,7-Dichloro-3-(1H-pyrazol-4-yl)-1H-indol-2-yl]-1,3,4-oxadiazole], the IC50 in experiment [1] came out at 0.464 µM; on recombinant human cGAS, 0.0405 µM.
On the same counts, the results for `OCc1nnc(-c2[nH]c3c(Cl)c(Cl)ccc3c2-c2cn[nH]c2)o1` [Example 157, (5-(6,7-Dichloro-3-(1H-pyrazol-4-yl)-1H-indol-2-yl)-1,3,4-oxadiazol-2-yl)methanol] are 0.331 µM and 0.0281 µM.
As for `Cc1nnc(-c2[nH]c3c(Cl)c(Cl)ccc3c2-c2cn[nH]c2)s1` [Example 158, 2-(6,7-Dichloro-3-(1H-pyrazol-4-yl)-1H-indol-2-yl)-5-methyl-1,3,4-thiadiazole], the IC50 in experiment [1] was determined as 0.363 µM; on recombinant human cGAS, 0.0507 µM.
The corresponding values for `Sc1nnc(-c2[nH]c3c(Cl)c(Cl)ccc3c2-c2cn[nH]c2)[nH]1` [Example 159, 5-[6,7-Dichloro-3-(1H-pyrazol-4-yl)-1H-indol-2-yl]-4H-1,2,4-triazole-3-thiol] are above 10 µM and 0.019 µM.
On the same counts, the results for `Clc1ccc2c(-c3cn[nH]c3)c(-c3nnc(C4CC4)o3)[nH]c2c1Cl` [Example 160, 2-Cyclopropyl-5-(6,7-dichloro-3-(1H-pyrazol-4-yl)-1H-indol-2-yl)-1,3,4-oxadiazole] are 0.536 µM and 0.0787 µM.
